According to patent US20250360162A1, “Naphthoic Acid-Derived Polymers as Antimicrobial Agents” (UNIVERSITY OF SOUTH CAROLINA, priority 2024, published 2025):

Legend:
MDR-K. pneumoniae = experiment: Resistance development study, serial passaging at sub-MIC; type: cell-based, Klebsiella pneumoniae; conditions: 14 passages over 2 weeks
Protocol: (§1) The resistance development study was performed following the protocol published earlier. […] To compare the result, the last-resort gram-negative antibiotics, Polymyxin-B, and carbapenem type, Imipenem, were used in the study. According to the protocol elaborated for the MIC assay above, the MIC values of compounds and antibiotics were determined against corresponding bacteria overnight. The next day, a new MIC assay was performed where the bacterial suspension was prepared from the bacteria grown at the sub-MIC (MIC/2) of compound concentration of the first-day experiment. The next 14 continuous passages were repeated as described above. The resistance development was calculated as the fold increase of MIC by dividing MIC to the initial MIC values of every passage and then plotted against the passage number. These experiments were performed in triplicate.
(§2) MDR bacteria employ various strategies inherently or adaptively to build up resistance, which becomes a serious health concern. […] Bacteria were exposed to continuous serial passaging at the sub-MIC level over 2 weeks. Antibiotics imipenem and polymyxin-B were used as controls.

MDR-P. aeruginosa = experiment: as above; type: cell-based, Pseudomonas aeruginosa; conditions: 14 passages over 2 weeks
Protocol: as §1, §2

[1] = system: mouse red blood cells (RBCs)
From the text: Hemolysis was given as HC50 where the concentration of a polymer causes 50% lysis of RBCs. […] RBC in PBS was used as the negative control to subtract any background signals.

[2] = system: MDR-P. aeruginosa biofilm; experiment: Biofilm eradication, quantification through bacterial cell viability; type: cell-based, Pseudomonas aeruginosa; conditions: 16×MIC
Protocol: (§3) 18 mm glass coverslips were sterilized with flame after rinsing with ethanol. The bacterial biofilms were grown by following the previously published protocol. After the preparation of mid-log grown MDR-P. aeruginosa bacteria in TSB media, bacteria concentration was adjusted in NB with 1% (w/v) glucose and 1% (w/v) NaCl supplements to ˜10^5 CFU/mL. 2 mL of the diluted bacterial cell culture was used to fill the 6-well plate and 18 mm sterilized glass coverslips were added to each well. The plate was incubated at 37° C. for 72 h. After 72 h, 1×PBS (pH=7.4) was used to wash away unadhered planktonic bacteria. The carefully washed coverslips containing surface-attached biofilms were placed into a new 6-well sterile plate. Later, various concentration of 1-QAC-Hex (2 mL) was added into the wells and incubated for 24 h. Polymyxin-B was used as a control antibiotic. As a negative control, 2 mL of media was added without compound. The following three experiments were adjusted in the further steps as follows.
Once again, coverslips were washed with 1×PBS and transferred to another new, sterile plate. Afterward, 2 mL of trypsin-EDTA solution (diluted in saline at a 1:10 ratio) was added to each well and incubated for 15 min. Samples of 20 μL of each concentration were then 10-fold serially diluted in 1×PBS. […]

[3] = system: MDR-P. aeruginosa biofilm; experiment: Biofilm eradication, confocal fluorescence microscopy (SYTO 9/PI, Z-stack); type: cell-based, Pseudomonas aeruginosa
Protocol: as §3
Coverslips were washed with 1×PBS and left to dry for 2 min. MDR-P. aeruginosa biofilm was simultaneously stained with equal volumes of (5 μL) SYTO 9 (60 μM) and PI (15 μM) and was placed on the slide immediately followed by incubation in darkness for 15 min. The glass coverslips images on the slide were captured with a Zeiss LSM 410 Confocal Laser Scanning Microscope in 40× magnification. […]

Molecule	change in MIC after serial passaging (MDR-K. pneumoniae)	change in MIC after serial passaging (MDR-P. aeruginosa)	lysis of RBCs [1]	killing of viable bacteria within the biofilm, in words [2]	thickness of biofilm ([3]; 16×MIC, control 9.96 μm)	live/dead cells in biofilm after treatment ([3]; polymyxin-B 16×MIC, 3-QAC-Hex 16×MIC and 32×MIC)
C[C@@H](O)[C@H]1C(=O)N2C(C(=O)O)=C(SCCN=CN)C[C@H]12 [imipenem]	16 fold	16 fold				
Triton-X 100			100%			
polymyxin-B	16 fold	8 fold		unable to kill the viable bacteria protected within the biofilm	9.03 μm	a large amount of live cells
